Reference: ChEMBL document CHEMBL1142788, “Synthesis and antibacterial activity of alkyl derivatives of the glycopeptide antibiotic A40926 and their amides” (2005)
Converted amounts (≈) assume the structure as drawn.

Legend:
[1] = system: Staphylococcus aureus; experiment: Minimum inhibitory concentration against methicillin-resistant Staphylococcus aureus
[2] = system: Staphylococcus haemolyticus; experiment: Minimum inhibitory concentration against Staphylococcus haemolyticus in the presence of 30% bovine serum; type: functional
[3] = system: Enterococcus faecalis; experiment: Minimum inhibitory concentration against vancomycin-A Enterococcus faecalis in the presence of 30% bovine serum(n=4) (range = 128>128 mg/L); type: functional
[4] = system: Staphylococcus epidermidis; experiment: Minimum inhibitory concentration against methicillin-resistant Staphylococcus epidermidis in the presence of 30% bovine serum; type: functional
[5] = system: Staphylococcus aureus; experiment: Minimum inhibitory concentration against methicillin-sensitive Staphylococcus aureus
[6] = system: Enterococcus faecalis; experiment: Minimum inhibitory concentration against vancomycin-sensitive Enterococcus faecalis in the presence of 30% bovine serum(n=3)(range = 0.25-0.5mg/l); type: functional
[7] = system: Staphylococcus epidermidis; experiment: Minimum inhibitory concentration against methicillin-sensitive Staphylococcus epidermidis in the presence of 30% bovine serum; type: functional
[8] = system: Enterococcus faecium; experiment: Minimum inhibitory concentration against vancomycin-A Enterococcus faecium in the presence of 30% bovine serum (n=1) (range = 4>128mg/L); type: functional
[9] = system: Enterococcus faecium; experiment: Minimum inhibitory concentration against vancomycin-sensitive Enterococcus faecium in the presence of 30% bovine serum(n=1); type: functional
[10] = system: Enterococcus faecalis; experiment: Minimum inhibitory concentration against vancomycin-sensitive Enterococcus faecalis in the presence of 30% bovine serum (n=3) (range = <0.125-0.25); type: functional
[11] = system: Enterococcus faecium; experiment: Minimum inhibitory concentration against vancomycin-A Enterococcus faecium in the presence of 30% bovine serum (n=1) (range = 0.5-16mg/l); type: functional
[12] = system: Enterococcus faecalis; experiment: Minimum inhibitory concentration against vancomycin-A Enterococcus faecalis in the presence of 30% bovine serum (n=4); type: functional
[13] = system: Enterococcus faecalis; experiment: Minimum inhibitory concentration against vancomycin-sensitive Enterococcus faecalis in the presence of 30% bovine serum(n=3)(range = 0.5-1 mg/l); type: functional
[14] = system: Enterococcus faecium; experiment: Minimum inhibitory concentration against vancomycin-A Enterococcus faecium in the presence of 30% bovine serum (n=1) (range = 64>128mg/L); type: functional
[15] = system: Enterococcus faecalis; experiment: Minimum inhibitory concentration against vancomycin-sensitive Enterococcus faecalis in the presence of 30% bovine serum(n=3); type: functional
[16] = system: Enterococcus faecium; experiment: Minimum inhibitory concentration against vancomycin-A Enterococcus faecium in the presence of 30% bovine serum (n=1) (range = 2-128mg/L); type: functional
[17] = system: Enterococcus faecalis; experiment: Minimum inhibitory concentration against vancomycin-A Enterococcus faecalis (n=4) (range = 4-128mg/L)
[18] = system: Enterococcus faecium; experiment: Minimum inhibitory concentration against vancomycin-A Enterococcus faecium in the presence of 30% bovine serum (n=1); type: functional
[19] = system: Enterococcus faecalis; experiment: Minimum inhibitory concentration against vancomycin-A Enterococcus faecalis in the presence of 30% bovine serum(n=4) (range = 64-128mg/L); type: functional
[20] = system: Enterococcus faecalis; experiment: Minimum inhibitory concentration against vancomycin-A Enterococcus faecalis (n=4) (range = 0.25-8mg/L)
[21] = system: Enterococcus faecalis; experiment: Minimum inhibitory concentration against vancomycin-A Enterococcus faecalis in the presence of 30% bovine serum(n=4) (range = 0.5-8 mg/L); type: functional
[22] = system: Enterococcus faecalis; experiment: Minimum inhibitory concentration against vancomycin-sensitive Enterococcus faecalis in the presence of 30% bovine serum (n=3); type: functional
[23] = system: Enterococcus faecalis; experiment: Minimum inhibitory concentration against vancomycin-A Enterococcus faecalis in the presence of 30% bovine serum(n=4) (range = 0.5-8mg/L); type: functional
[24] = system: Enterococcus faecium; experiment: Minimum inhibitory concentration against vancomycin-A Enterococcus faecium in the presence of 30% bovine serum (n=1) (range = 0.25-32mg/l); type: functional
[25] = system: Enterococcus faecalis; experiment: Minimum inhibitory concentration against vancomycin-sensitive Enterococcus faecalis in the presence of 30% bovine serum (n=3) (range = 8-4); type: functional
[26] = system: Enterococcus faecium; experiment: Minimum inhibitory concentration against vancomycin-sensitive Enterococcus faecium in the presence of 30% bovine serum (n=1); type: functional
[27] = system: Enterococcus faecium; experiment: Minimum inhibitory concentration against vancomycin-A Enterococcus faecium in the presence of 30% bovine serum in the presence of 30% bovine serum (n=1); type: functional

SMILES	MIC [1]	MIC [2]	MIC [4]	MIC [5]	MIC [7]	MIC [9]	MIC [15]	also measured
CN(Cc1ccc(-c2ccccc2)cc1)[C@H]1C(=O)N[C@@H]2Cc3ccc(cc3)Oc3cc4cc(c3O[C@@H]3OC(C(=O)O)C(O)[C@H](O)C3N)Oc3ccc(cc3Cl)[C@@H](O)C3NC(=O)[C@H](NC(=O)[C@@H]4NC(=O)[C@@H](NC2=O)c2cc(cc(O)c2Cl)Oc2cc1ccc2O)c1ccc(O)c(c1)-c1c(O[C@H]2O[C@H](CO)[C@@H](O)[C@H](O)[C@@H]2O)cc(O)cc1[C@@H](C(=O)O)NC3=O (some centres not stated)	1 µg/mL (≈ 0.583 µM)	32 µg/mL	16 µg/mL	1 µg/mL (≈ 0.583 µM)	2 µg/mL	0.5 µg/mL	–	MIC [3]: 128 µg/mL; MIC [6]: 0.5 µg/mL; MIC [8]: > 128 µg/mL
CN(C)CCCNC(=O)C1O[C@@H](Oc2c3cc4cc2Oc2ccc(cc2Cl)[C@@H](O)C2NC(=O)[C@H](NC(=O)[C@@H]4NC(=O)[C@H]4NC(=O)[C@@H](Cc5ccc(cc5)O3)NC(=O)[C@H](N(C)Cc3ccc(C(=O)Oc5ccccc5)cc3)c3ccc(O)c(c3)Oc3cc(O)c(Cl)c4c3)c3ccc(O)c(c3)-c3c(O[C@H]4O[C@H](CO)[C@@H](O)[C@H](O)[C@@H]4O)cc(O)cc3[C@@H](C(=O)NCCCN(C)C)NC2=O)C(NCc2ccc(C(=O)Oc3ccccc3)cc2)[C@@H](O)C1O (some centres not stated)	1 µg/mL (≈ 0.467 µM)	2 µg/mL	2 µg/mL	1 µg/mL (≈ 0.467 µM)	0.25 µg/mL	0.5 µg/mL	–	MIC [10]: 0.25 µg/mL; MIC [11]: > 16 µg/mL
CCCCc1ccc(CN(C)[C@H]2C(=O)N[C@@H]3Cc4ccc(cc4)Oc4cc5cc(c4O[C@@H]4OC(C(=O)O)C(O)[C@H](O)C4N)Oc4ccc(cc4Cl)[C@@H](O)C4NC(=O)[C@H](NC(=O)[C@@H]5NC(=O)[C@@H](NC3=O)c3cc(cc(O)c3Cl)Oc3cc2ccc3O)c2ccc(O)c(c2)-c2c(O[C@H]3O[C@H](CO)[C@@H](O)[C@H](O)[C@@H]3O)cc(O)cc2[C@@H](C(=O)O)NC4=O)cc1 (some centres not stated)	1 µg/mL (≈ 0.589 µM)	32 µg/mL	8 µg/mL	1 µg/mL (≈ 0.589 µM)	1 µg/mL	0.5 µg/mL	–	MIC [3]: 128 µg/mL; MIC [6]: 0.5 µg/mL; MIC [8]: > 128 µg/mL
CN[C@H]1C(=O)N[C@@H]2Cc3ccc(cc3)Oc3cc4cc(c3O[C@@H]3OC(C(=O)O)C(O)[C@H](O)C3NCc3ccc5ccccc5c3)Oc3ccc(cc3Cl)[C@@H](O)C3NC(=O)[C@H](NC(=O)[C@@H]4NC(=O)[C@@H](NC2=O)c2cc(cc(O)c2Cl)Oc2cc1ccc2O)c1ccc(O)c(c1)-c1c(O[C@H]2O[C@H](CO)[C@@H](O)[C@H](O)[C@@H]2O)cc(O)cc1[C@@H](C(=O)O)NC3=O (some centres not stated)	1 µg/mL (≈ 0.592 µM)	32 µg/mL	16 µg/mL	2 µg/mL (≈ 1.18 µM)	2 µg/mL	2 µg/mL	–	MIC [12]: 128 µg/mL; MIC [13]: 1 µg/mL; MIC [14]: > 128 µg/mL
CN(Cc1ccc2ccccc2c1)[C@H]1C(=O)N[C@@H]2Cc3ccc(cc3)Oc3cc4cc(c3O[C@@H]3OC(C(=O)O)C(O)[C@H](O)C3NCc3ccc5ccccc5c3)Oc3ccc(cc3Cl)[C@@H](O)C3NC(=O)[C@H](NC(=O)[C@@H]4NC(=O)[C@@H](NC2=O)c2cc(cc(O)c2Cl)Oc2cc1ccc2O)c1ccc(O)c(c1)-c1c(O[C@H]2O[C@H](CO)[C@@H](O)[C@H](O)[C@@H]2O)cc(O)cc1[C@@H](C(=O)O)NC3=O (some centres not stated)	1 µg/mL (≈ 0.546 µM)	16 µg/mL	16 µg/mL	2 µg/mL (≈ 1.09 µM)	2 µg/mL	2 µg/mL	< 0.125 µg/mL	MIC [16]: > 128 µg/mL; MIC [17]: 128 µg/mL (≈ 69.9 µM)
CN[C@H]1C(=O)N[C@@H]2Cc3ccc(cc3)Oc3cc4cc(c3O[C@@H]3OC(C(=O)NCCCN(C)C)C(O)[C@H](O)C3N)Oc3ccc(cc3Cl)[C@@H](O)C3NC(=O)[C@H](NC(=O)[C@@H]4NC(=O)[C@@H](NC2=O)c2cc(cc(O)c2Cl)Oc2cc1ccc2O)c1ccc(O)c(c1)-c1c(O[C@H]2O[C@H](CO)[C@@H](O)[C@H](O)[C@@H]2O)cc(O)cc1[C@@H](C(=O)NCCCN(C)C)NC3=O (some centres not stated)	2 µg/mL (≈ 1.16 µM)	0.05 µg/mL	–	1 µg/mL (≈ 0.582 µM)	1 µg/mL	1 µg/mL	1 µg/mL	MIC [18]: > 128 µg/mL; MIC [3]: 128 µg/mL
CCCCc1ccc(CNC2[C@H](Oc3c4cc5cc3Oc3ccc(cc3Cl)[C@@H](O)C3NC(=O)[C@H](NC(=O)[C@@H]5NC(=O)[C@H]5NC(=O)[C@@H](Cc6ccc(cc6)O4)NC(=O)[C@H](NC)c4ccc(O)c(c4)Oc4cc(O)c(Cl)c5c4)c4ccc(O)c(c4)-c4c(O[C@H]5O[C@H](CO)[C@@H](O)[C@H](O)[C@@H]5O)cc(O)cc4[C@@H](C(=O)O)NC3=O)OC(C(=O)O)C(O)[C@@H]2O)cc1 (some centres not stated)	0.25 µg/mL (≈ 0.147 µM)	16 µg/mL	4 µg/mL	0.25 µg/mL (≈ 0.147 µM)	0.25 µg/mL	2 µg/mL	< 0.125 µg/mL	MIC [19]: 128 µg/mL; MIC [14]: > 128 µg/mL
CCCCOc1ccc(CNC2[C@H](Oc3c4cc5cc3Oc3ccc(cc3Cl)[C@@H](O)C3NC(=O)[C@H](NC(=O)[C@@H]5NC(=O)[C@H]5NC(=O)[C@@H](Cc6ccc(cc6)O4)NC(=O)[C@H](NC)c4ccc(O)c(c4)Oc4cc(O)c(Cl)c5c4)c4ccc(O)c(c4)-c4c(O[C@H]5O[C@H](CO)[C@@H](O)[C@H](O)[C@@H]5O)cc(O)cc4[C@@H](C(=O)O)NC3=O)OC(C(=O)O)C(O)[C@@H]2O)cc1 (some centres not stated)	1 µg/mL (≈ 0.584 µM)	32 µg/mL	16 µg/mL	1 µg/mL (≈ 0.584 µM)	1 µg/mL	1 µg/mL	–	MIC [12]: 128 µg/mL; MIC [13]: 1 µg/mL; MIC [14]: > 128 µg/mL
CCCCc1ccc(CNC2[C@H](Oc3c4cc5cc3Oc3ccc(cc3Cl)[C@@H](O)C3NC(=O)[C@H](NC(=O)[C@@H]5NC(=O)[C@H]5NC(=O)[C@@H](Cc6ccc(cc6)O4)NC(=O)[C@H](N(C)Cc4ccc(CCCC)cc4)c4ccc(O)c(c4)Oc4cc(O)c(Cl)c5c4)c4ccc(O)c(c4)-c4c(O[C@H]5O[C@H](CO)[C@@H](O)[C@H](O)[C@@H]5O)cc(O)cc4[C@@H](C(=O)NCCCN(C)C)NC3=O)OC(C(=O)NCCCN(C)C)C(O)[C@@H]2O)cc1 (some centres not stated)	2 µg/mL (≈ 0.995 µM)	2 µg/mL	2 µg/mL	1 µg/mL (≈ 0.497 µM)	0.25 µg/mL	0.5 µg/mL	–	MIC [20]: 8 µg/mL (≈ 3.98 µM); MIC [10]: < 0.125 µg/mL; MIC [11]: 16 µg/mL
CCCCCCCCOc1ccc(CNC2[C@H](Oc3c4cc5cc3Oc3ccc(cc3Cl)[C@@H](O)C3NC(=O)[C@H](NC(=O)[C@@H]5NC(=O)[C@H]5NC(=O)[C@@H](Cc6ccc(cc6)O4)NC(=O)[C@H](NC)c4ccc(O)c(c4)Oc4cc(O)c(Cl)c5c4)c4ccc(O)c(c4)-c4c(O[C@H]5O[C@H](CO)[C@@H](O)[C@H](O)[C@@H]5O)cc(O)cc4[C@@H](C(=O)NCCCN(C)C)NC3=O)OC(C(=O)NCCCN(C)C)C(O)[C@@H]2O)cc1 (some centres not stated)	0.25 µg/mL (≈ 0.129 µM)	4 µg/mL	–	0.5 µg/mL (≈ 0.258 µM)	0.125 µg/mL	0.13 µg/mL	–	MIC [18]: 0.8 µg/mL; MIC [21]: 8 µg/mL; MIC [22]: 0.25 µg/mL
CN(C)CCCNC(=O)C1O[C@@H](Oc2c3cc4cc2Oc2ccc(cc2Cl)[C@@H](O)C2NC(=O)[C@H](NC(=O)[C@@H]4NC(=O)[C@H]4NC(=O)[C@@H](Cc5ccc(cc5)O3)NC(=O)[C@H](N(C)Cc3c[nH]c5ccccc35)c3ccc(O)c(c3)Oc3cc(O)c(Cl)c4c3)c3ccc(O)c(c3)-c3c(O[C@H]4O[C@H](CO)[C@@H](O)[C@H](O)[C@@H]4O)cc(O)cc3[C@@H](C(=O)NCCCN(C)C)NC2=O)C(NCc2c[nH]c3ccccc23)[C@@H](O)C1O (some centres not stated)	1 µg/mL (≈ 0.506 µM)	2 µg/mL	2 µg/mL	2 µg/mL (≈ 1.01 µM)	1 µg/mL	0.25 µg/mL	< 0.125 µg/mL	MIC [23]: 8 µg/mL; MIC [24]: 32 µg/mL
CN[C@H]1C(=O)N[C@@H]2Cc3ccc(cc3)Oc3cc4cc(c3O[C@@H]3OC(C(=O)O)C(O)[C@H](O)C3N)Oc3ccc(cc3Cl)[C@@H](O)C3NC(=O)[C@H](NC(=O)[C@@H]4NC(=O)[C@@H](NC2=O)c2cc(cc(O)c2Cl)Oc2cc1ccc2O)c1ccc(O)c(c1)-c1c(O[C@H]2O[C@H](CO)[C@@H](O)[C@H](O)[C@@H]2O)cc(O)cc1[C@@H](C(=O)O)NC3=O (some centres not stated)	16 µg/mL (≈ 10.3 µM)	–	–	16 µg/mL (≈ 10.3 µM)	–	–	–	MIC [12]: > 128 µg/mL; MIC [25]: 8 µg/mL; MIC [26]: 8 µg/mL; MIC [27]: > 128 µg/mL
